A short description of the data set: UV thermal melting temperatures of TNA 12-mer duplexes. Type of data set: physicochemical. To be noted: 1×PBS; for ΔTm (° C.): relative to unmodified duplex; for Tm (° C.): TNA 12-mer duplexes, 2.0 μM each strand, pH 7.4. The source says:
Values were reported as the maximum of the first derivative and are the average of at least two experiments. […] The structures x and y are shown here:
Values were reported as the maximum of the first derivative and are the average of at least two experiments.

This is an account of results in patent US20250207131A1, “MODIFIED RNA AGENTS WITH REDUCED OFF-TARGET EFFECT” (Alnylam Pharmaceuticals, Inc., priority 2018, published 2025).

d = 2'-deoxy (DNA); r = 2'-OH (RNA); f = 2'-fluoro

“AD-64366.3 (sense UACAGUCUAUGU; antisense ACAUAGACUGUA; RNA, backbone not given here)”: the “ΔTm (° C.)” value amounted to 0 °C and the “Tm (° C.)” value was 52.57 °C.
On to “AD-64366.4 (sense UACAGUCUAUGU; antisense ACAUAGACUGUA; RNA, backbone not given here)”, for which the “ΔTm (° C.)” value was determined as 0 °C and the “Tm (° C.)” value was determined as 52.62 °C.
Consider “AD-64367.3 (sense TACAGTCTATGT; antisense ACATAGACTGTA; DNA, backbone not given here)”, for which the “ΔTm (° C.)” value is 0 °C and the “Tm (° C.)” value came out at 42.42 °C.
The matching figures for “AD-64367.4 (sense TACAGTCTATGT; antisense ACATAGACTGTA; DNA, backbone not given here)”: 0 °C and 42.67 °C.
Taken in the same sequence, the figures for “AD-64980.2 (sense UACAGUCUAUGU; antisense ACAUAGACUGUA; siRNA; one 2'-fluoro U in sense strand, plain letters not given here, further chemistry not given here)” were 0.52 °C and 53.14 °C.
Turning to “AD-64981.2 (sense TACAGUCTATGT; antisense ACATAGACTGTA; siRNA; sense: sugars from the 5' end d5 f1 d6, backbone not given here; antisense: DNA, backbone not given here)”, the “ΔTm (° C.)” value was −2.615 °C and the “Tm (° C.)” value worked out at 40.055 °C.
Take “AD-72585.2 (sense UACAGTCUAUGU; antisense ACAUAGACUGUA; siRNA; one TNA thymine in sense strand, plain letters not given here, further chemistry not given here)”: the “ΔTm (° C.)” value is −4.825 °C and the “Tm (° C.)” value was 47.745 °C.
Consider “AD-72586.2 (sense TACAGTCTATGT; antisense ACATAGACTGTA; siRNA; chemistry not fully specified)”, for which the “ΔTm (° C.)” value worked out at 2.1 °C and the “Tm (° C.)” value was determined as 40.32 °C.
Taken in the same sequence, the figures for “AD-72587.2 (sense UACAGUCUAUGU; antisense ACAUAGACUGUA; siRNA; one TNA cytidine in sense strand, plain letters not given here, further chemistry not given here)” were −5.45 °C and 47.12 °C.
Turning to “AD-649408.1 (sense UACAGUCUAUGU; antisense ACAUAGACUGUA; chemistry not fully specified)”, the “ΔTm (° C.)” value is −4.5 °C and the “Tm (° C.)” value is 48.07 °C.
For “AD-649409.1 (sense UACAGUCUAUGU; antisense ACAUAGACUGUA; chemistry not fully specified)”, the “ΔTm (° C.)” value was −4.9 °C and the “Tm (° C.)” value was 47.67 °C.
In the case of “AD-649411.1 (sense UACAGUCUAUGU; antisense ACAUAGACUGUA; chemistry not fully specified)”, the “ΔTm (° C.)” value was −11 °C and the “Tm (° C.)” value is 41.57 °C.
For the substance “AD-649412.1 (sense UACAGUCUAUGU; antisense ACAUAGACUGUA; sense: RNA, backbone not given here; antisense: chemistry not given here; further chemistry not fully specified)”, the “ΔTm (° C.)” value worked out at 0.55 °C and the “Tm (° C.)” value came to 53.17 °C.
In the case of “AD-649414.1 (sense UACAGUCUAUGU; antisense ACAUAGACUGUA; chemistry not fully specified)”, the “ΔTm (° C.)” value was 0.45 °C and the “Tm (° C.)” value was found to be 53.07 °C.
Take “AD-649415.1 (sense UACAGUCUAUGU; antisense ACAUAGACUGUA; sense: sugars from the 5' end r5 f1 r6, backbone not given here; antisense: sugars from the 5' end r6 f1 r5, backbone not given here)”: the “ΔTm (° C.)” value came out at 1.6 °C and the “Tm (° C.)” value was 54.22 °C.
As for “AD-649416.1 (sense UACAGUCUAUGU; antisense ACAUAGACUGUA; sense: RNA, backbone not given here; antisense: sugars from the 5' end r5 f1 r6, backbone not given here)”, the “ΔTm (° C.)” value was 2.7 °C and the “Tm (° C.)” value was 55.32 °C.
The matching figures for “AD-649417.1 (sense TACAGTCTATGT; antisense ACATAGACTGTA; chemistry not fully specified)”: 0.65 °C and 43.07 °C.
Take “AD-649418.1 (sense TACAGTCTATGT; antisense ACATAGACTGTA; sense: chemistry not given here; antisense: DNA, backbone not given here; further chemistry not fully specified)”: the “ΔTm (° C.)” value is −1.78 °C and the “Tm (° C.)” value came to 40.64 °C.
Regarding “AD-649419.1 (sense TACAGTCTATGT; antisense ACATAGACTGTA; chemistry not fully specified)”, the “ΔTm (° C.)” value is 1.8 °C and the “Tm (° C.)” value came out at 44.22 °C.
In the case of “AD-649420.1 (sense TACAGTCTATGT; antisense ACATAGACTGTA; chemistry not fully specified)”, the “ΔTm (° C.)” value was −2.5 °C and the “Tm (° C.)” value is 39.92 °C.
On to “AD-649421.1 (sense TACAGTCTATGT; antisense ACATAGACTGTA; chemistry not fully specified)”, for which the “ΔTm (° C.)” value was −2.365 °C and the “Tm (° C.)” value was found to be 40.055 °C.
For the substance “AD-649422.1 (sense TACAGTCTATGT; antisense ACATAGACTGTA; sense: DNA, backbone not given here; antisense: sugars from the 5' end d6 f1 d5, backbone not given here)”, the “ΔTm (° C.)” value was −0.4 °C and the “Tm (° C.)” value amounted to 42.27 °C.
Turning to “AD-649423.1 (sense TACAGTCTATGT; antisense ACATAGACTGTA; sense: sugars from the 5' end d6 f1 d5, backbone not given here; antisense: DNA, backbone not given here)”, the “ΔTm (° C.)” value is −0.325 °C and the “Tm (° C.)” value turned out to be 42.345 °C.
“AD-649424.1 (sense TACAGTCTATGT; antisense ACATAGACTGTA; sense: DNA, backbone not given here; antisense: sugars from the 5' end d5 f1 d6, backbone not given here)”: the “ΔTm (° C.)” value is 0.275 °C and the “Tm (° C.)” value stood at 42.945 °C.
Consider “AD-649425.1 (sense TACAGUCTATGT; antisense ACATAGACTGTA; sense: sugars from the 5' end d5 f1 d6, backbone not given here; antisense: sugars from the 5' end d6 f1 d5, backbone not given here)”, for which the “ΔTm (° C.)” value is −2.5 °C and the “Tm (° C.)” value stood at 40.17 °C.
For “AD-649426.1 (sense TACAGTCTATGT; antisense ACATAGACTGTA; sense: sugars from the 5' end d6 f1 d5, backbone not given here; antisense: sugars from the 5' end d5 f1 d6, backbone not given here)”, the “ΔTm (° C.)” value worked out at 0.1 °C and the “Tm (° C.)” value is 42.77 °C.
